# Measurements: patent US20240165114A1, “TREATMENT OF DIABETIC NEPHROPATHY WITH AN sGC STIMULATOR” (Cyclerion Therapeutics, Inc., priority 2019, published 2024)
# Legend:
# [1] = test system: adult patients with type 2 diabetes mellitus with albuminuria; test: Phase 2 study: 24-hour ambulatory blood pressure monitoring (ABPM); assay type: in vivo, human; conditions: ITT, 24-Hour ABPM
# Procedure: Hemodynamic and vital signs that were measure included seated and standing BP (systolic and diastolic) and pulse measurements by automated office blood pressure (AOBP), ambulatory BP (systolic and diastolic) and pulse monitoring, respiratory rate, oral temperature. Orthostatic (standing minus seated) measurements were calculated for BPs and pulse.
# (§1) This multicenter, randomized, double-blind, placebo-controlled, parallel-group study evaluated 2 dose levels of IW-1973 compared with placebo. The study population consisted of adult patients with type 2 diabetes mellitus, albuminuria, and impaired renal function. Patients had to have been taking antihyperglycemic medications for at least 12 weeks with their regimen being stable (ie, drug and dose) for at least 28 days before the Randomization Visit. Additionally, patients had to have been on a stable regimen of angiotensin-converting enzyme inhibitor (ACEi) or an angiotensin receptor blocker (ARB), for at least 28 days before the Randomization Visit. For more details, see Inclusion Criteria below. A total of 156 patients (approximately 50 patients per arm) were stratified by baseline estimated glomerular filtration rate (eGFR) into three groups: eGFR 30 to 45, >45 to 60, and >60 to 75 mL/min/1.73 m^2) and randomized approximately 1:1:1 to total daily 20 mg IW-1973, 40 mg IW-1973, or placebo.
# Screening Period: The Screening Period began with the signature of the informed consent form (ICF) at the Screening Visit and lasted up to 45 days. At the Screening Visit (which could occur from Day −45 to Day −15), patients underwent preliminary screening procedures to determine their eligibility. Eligible patients returned to the clinic for the Baseline Visit ([…]) for baseline and eligibility assessments including 24-hour ambulatory blood pressure monitoring (ABPM). The end of the Screening Period coincided with the beginning of the Treatment Period.
# Dosing on Days 1 to 7 (±1) was BID (twice daily), morning and evening; dosing on Day 8 (±1) and onward was QD (once daily), 2 tablets in the morning. At the Randomization Visit on Day 1, patients received their morning dose of study drug in the clinic and underwent safety, efficacy, and pharmacokinetic (PK) assessments, including blood and urine collections at prespecified times. Patients stayed in the clinic at least 6 hours postdose and were able to leave the clinic at the Investigator's discretion following all study procedures. At the Week 1 Visit on Day 8 (±1), patients returned to the clinic and received their first QD dose of study drug in the clinic. Patients underwent safety, efficacy, and PK assessments, including blood and urine collections at prespecified times. Patients stayed in the clinic at least 6 hours postdose and were able to leave the clinic at the Investigator's discretion following all study procedures. At the Week 4 (Day 29±3), Week 8 (Day 57±3), and End of Treatment (Day 87±3) Visits, patients returned to the clinic for study drug administration; safety, efficacy, and PK assessments; and study drug supply, if applicable.
# [2] = test system: adult patients with type 2 diabetes mellitus with albuminuria; test: Phase 2 study: hemoglobin A1c; assay type: in vivo, human; conditions: for Hemoglobin A1c: Between PRL and PBO Group LS Mean Change from Baseline at week 12 / Hemoglobin A1c: Within Group LS Mean Change from Baseline at Week 12: ITT
# Description: (§2) Other secondary objectives of this clinical study included the evaluation of the pharmacokinetic (PK) concentrations of oral IW-1973 and the exploration of the effect of oral IW-1973 on hemodynamics and metabolic effects when administered daily for approximately 12 weeks to adult patients with type 2 diabetes mellitus with albuminuria (i.e., DN patients) who were on a stable regimen of renin-angiotensin system inhibitors (RAAS inhibitors, i.e., ACEi's and ARBs).
# (§3) Clinical laboratory assessments obtained during the performance of this clinical trial included: complete blood count, serum chemistry panel, urinalysis, coagulation panel, estimated glomerular filtration rate (eGFR; determined by the Chronic Kidney Disease Epidemiology Collaboration [CKD-EPI] creatinine equation), hemoglobin A1c (HbA1C), Homeostatic Model Assessment to estimate insulin resistance (HOMA-IR), platelet function assessment (using VerifyNow®, at a subset of sites), urine pregnancy, and screens for hepatitis, human immunodeficiency virus, and drugs of abuse.
# as §1
# [3] = test system: adult patients with type 2 diabetes mellitus with albuminuria; test: Phase 2 study: serum cholesterol; assay type: in vivo, human; conditions: for Serum Cholesterol: Between PRL and PBO Group LS Mean Change from Baseline at week 12 / Serum Cholesterol: Within Group LS Mean Change from Baseline at Week 12: ITT; for Cholesterol: Placebo-Adjusted LS Mean Change from Baseline at Week 12 / Cholesterol: Within Group LS Mean Change from Baseline at Week 12: mITT Population
# Description: as §2, §3, §1
# [4] = Plasma IW-1973 concentrations / population PK in the Phase 2 study; assay type: in vivo, human
# Procedure: Plasma IW-1973 concentrations were measured for pharmacokinetic determinations.
# The population PK approach based on sparse PK data was used to determine exposure (AUC) and oral clearance (CL/F) of IW-1973. Influence of patient demographics (eg, age, race) on exposure was evaluated. In addition, exposure-effect (such as hemodynamic, exploratory biomarkers, efficacy, and safety parameters) relationships were explored. Effects of concomitant medications on IW-1973 PK was also evaluated.
# Praliciguat concentrations were measured using a validated liquid chromatography tandem mass spectrometry method, as previously described (Hanrahan J P, et al. “A Randomized, Placebo-Controlled, Multiple-Ascending-Dose Study to Assess the Safety, Tolerability, Pharmacokinetics, and Pharmacodynamics of the Soluble Guanylate Cyclase Stimulator Praliciguat in Healthy Subjects” Clin Pharmacol Drug Dev. 2019, 8(5):564-575). Population PK analysis was performed using NONMEM 7.4 (Icon Development Solutions, Ellicott City, MD) to update an existing model established with data from three Phase 1 studies in healthy subjects and two phase 2a studies in patients with stable type 2 diabetes mellitus (T2D) and hypertension. The influence of patient demographics, renal function and concomitant medications on exposure were evaluated, and estimates of exposure (AUC) and oral clearance (CL/F) were determined.
# [5] = patient concomitantly taking a strong CYP3A inhibitor; cited from earlier work
structure (smiles),measurement,setting,value
"OC(CNc1nc(-c2cc(-c3ccon3)n(Cc3ccccc3F)n2)ncc1F)(C(F)(F)F)C(F)(F)F [Compound I, praliciguat]",Between PRL and PBO Group LS Mean Change 24-hour MAP from Baseline at week 12,[1]; PRL 20 mg,−3.96 mmHg
same,Between PRL and PBO Group LS Mean Change 24-hour SBP from Baseline at week 12,[1]; PRL 20 mg,−4.06 mmHg
same,Within Group LS Mean Change from Baseline 24-hour MAP at Week 12,[1]; PRL 20 mg,−3.62 mmHg
same,Within Group LS Mean Change from Baseline 24-hour SBP at Week 12,[1]; PRL 20 mg,−4.18 mmHg
same,Between PRL and PBO Group LS Mean Change 24-hour MAP from Baseline at week 12,[1]; PRL 40 mg,−3.58 mmHg
same,Between PRL and PBO Group LS Mean Change 24-hour SBP from Baseline at week 12,[1]; PRL 40 mg,−4.29 mmHg
same,Within Group LS Mean Change from Baseline 24-hour MAP at Week 12,[1]; PRL 40 mg,−3.23 mmHg
same,Within Group LS Mean Change from Baseline 24-hour SBP at Week 12,[1]; PRL 40 mg,−4.41 mmHg
same,Between PRL and PBO Group LS Mean Change 24-hour MAP from Baseline at week 12,[1]; PRL Combined,−3.77 mmHg
same,Between PRL and PBO Group LS Mean Change 24-hour SBP from Baseline at week 12,[1]; PRL Combined,−4.17 mmHg
same,Within Group LS Mean Change from Baseline 24-hour MAP at Week 12,[1]; PRL Combined,−3.43 mmHg
same,Within Group LS Mean Change from Baseline 24-hour SBP at Week 12,[1]; PRL Combined,−4.30 mmHg
same,decrease in mean HbA1c levels compared to placebo,[2]; 12 weeks of treatment,~0.3%
same,Hemoglobin A1c: Between PRL and PBO Group LS Mean Change from Baseline at week 12,[2]; PRL 20 mg,−0.23%
same,Hemoglobin A1c: Within Group LS Mean Change from Baseline at Week 12,[2]; PRL 20 mg,−0.26%
same,Hemoglobin A1c: Between PRL and PBO Group LS Mean Change from Baseline at week 12,[2]; PRL 40 mg,−0.30%
same,Hemoglobin A1c: Within Group LS Mean Change from Baseline at Week 12,[2]; PRL 40 mg,−0.38%
same,Hemoglobin A1c: Between PRL and PBO Group LS Mean Change from Baseline at week 12,[2]; PRL Combined,−0.27%
same,Hemoglobin A1c: Within Group LS Mean Change from Baseline at Week 12,[2]; PRL Combined,−0.34%
same,Serum Cholesterol: Between PRL and PBO Group LS Mean Change from Baseline at week 12,[3]; PRL 20 mg,-12.1 mg/dL
same,Serum Cholesterol: Within Group LS Mean Change from Baseline at Week 12,[3]; PRL 20 mg,-7.8 mg/dL
same,Serum Cholesterol: Between PRL and PBO Group LS Mean Change from Baseline at week 12,[3]; PRL 40 mg,-8.1 mg/dL
same,Serum Cholesterol: Within Group LS Mean Change from Baseline at Week 12,[3]; PRL 40 mg,-3.7 mg/dL
same,Serum Cholesterol: Between PRL and PBO Group LS Mean Change from Baseline at week 12,[3]; PRL Combined,-10.1 mg/dL
same,Serum Cholesterol: Within Group LS Mean Change from Baseline at Week 12,[3]; PRL Combined,-5.8 mg/dL
same,Cholesterol: Placebo-Adjusted LS Mean Change from Baseline at Week 12,[3]; PRL 20 mg,-13.1 mg/dL
same,Cholesterol: Within Group LS Mean Change from Baseline at Week 12,[3]; PRL 20 mg,-10.6 mg/dL
same,Cholesterol: Placebo-Adjusted LS Mean Change from Baseline at Week 12,[3]; PRL 40 mg,-7.5 mg/dL
same,Cholesterol: Within Group LS Mean Change from Baseline at Week 12,[3]; PRL 40 mg,-4.8 mg/dL
same,Cholesterol: Placebo-Adjusted LS Mean Change from Baseline at Week 12,[3]; PRL Combined,-10.2 mg/dL
same,Cholesterol: Within Group LS Mean Change from Baseline at Week 12,[3]; PRL Combined,-7.7 mg/dL
same,plasma exposure versus dose,[4]; 20 mg and 40 mg total daily oral dose,dose-proportional exposure
same,time to steady state of plasma concentrations,[4]; daily oral dosing,≤ 4 weeks
same,route of elimination (renal excretion),[4]; metabolized in the liver,negligible renal excretion
same,AUC with concomitant strong CYP3A inhibitor versus without,[5],doubled
same,T1/2 with concomitant strong CYP3A inhibitor versus without,[5],doubled
